Tests used:
MT4 [1] = test: Tested for appearance of MT-4 cell toxicity after 5 days of incubation; type: functional; details: Homo sapiens, MT4, 120 h; read-out: TD50 (the source's name)
[2] = Tested for anticoagulation effect by Zuchker's activated partial thromboplastin time (APTT) method; type: functional
MT4 [3] = test: Tested against HIV-1 induced cytopathic effect in MT-4 cells on LAV-1 strain; type: functional, Homo sapiens
MT4 [4] = test: Tested against HIV-1 induced cytopathic effect in MT-4 cells on KK-1AIDS (strain clinically isolated from an AIDS patient); type: functional, Homo sapiens
[5] = system: Human immunodeficiency virus 1; test: Tested against HIV-1 replication of KK-1AIDS strain in peripheral blood mononuclear cells (value obtained in the presence of 20% FCS); type: functional, organism-based
[6] = (§1) Tested for cytopathic effect caused by LAV-1 strain in MT-4 cells in the presence of human serum; type: functional, cell-based; details: MT4, Serum
MOLT-4 = test: Tested for the suppressive effect on giant cell formation in MOLT-4 and MOLT-4/HIV LAV-1 cells (value obtained in the presence of 10% FCS); type: functional, cell-based; details: Homo sapiens
[7] = (§2) Tested for cytopathic effect caused by KK-1AIDS strain in MT-4 cells in the presence of human serum; type: functional, cell-based; details: MT4, Serum
MT4 [8] = test: as §1; type: functional, cell-based
MT4 [9] = test: as §2; type: functional, cell-based

IC50 [5] [µg/mL]	IC50 [6] [µg/mL]	IC50 (MOLT-4) [µg/mL]	IC50 [7] [µg/mL]	SMILES	CC50 (MT4 [1]) [µg/mL]	APTT [2] [µg/mL]	IC100 (MT4 [3]) [µg/mL]	IC100 (MT4 [4]) [µg/mL]	IC50 (MT4 [8]) [µg/mL]	IC50 (MT4 [9]) [µg/mL]
–	–	–	–	O=S(=O)([O-])OC[C@@H]1O[C@@H]2O[C@H]3[C@H](OS(=O)(=O)[O-])[C@H](O)[C@@H](O[C@H]4[C@H](OS(=O)(=O)[O-])[C@H](O)[C@@H](O[C@H]5[C@H](OS(=O)(=O)[O-])[C@H](O)[C@@H](O[C@H]6[C@H](OS(=O)(=O)[O-])[C@H](O)[C@@H](O[C@H]7[C@H](OS(=O)(=O)[O-])[C@H](O)C(O[C@H]8[C@H](OS(=O)(=O)[O-])[C@H](O)C(O[C@H]1[C@H](OS(=O)(=O)[O-])[C@@H]2O)O[C@H]8COS(=O)(=O)[O-])O[C@H]7COS(=O)(=O)[O-])O[C@H]6COS(=O)(=O)[O-])O[C@H]5COS(=O)(=O)[O-])O[C@H]4COS(=O)(=O)[O-])O[C@H]3COS(=O)(=O)[O-].[K+].[K+].[K+].[K+].[K+].[K+].[K+].[K+].[K+].[K+].[K+].[K+].[K+].[K+]	> 1000	2.8	31.26	125	–	–
3.6	0.87	0.46	5.8	O=S(=O)([O-])OC[C@@H]1O[C@@H]2O[C@H]3[C@H](OS(=O)(=O)[O-])[C@H](OCc4ccccc4)[C@@H](O[C@H]4[C@H](OS(=O)(=O)[O-])[C@H](OCc5ccccc5)[C@@H](O[C@H]5[C@H](OS(=O)(=O)[O-])[C@H](OCc6ccccc6)[C@@H](O[C@H]6[C@H](OS(=O)(=O)[O-])[C@H](OCc7ccccc7)[C@@H](O[C@H]7[C@H](OS(=O)(=O)[O-])[C@H](OCc8ccccc8)C(O[C@H]8[C@H](OS(=O)(=O)[O-])[C@H](OCc9ccccc9)C(O[C@H]1[C@H](OS(=O)(=O)[O-])[C@@H]2OCc1ccccc1)O[C@H]8COS(=O)(=O)[O-])O[C@H]7COS(=O)(=O)[O-])O[C@H]6COS(=O)(=O)[O-])O[C@H]5COS(=O)(=O)[O-])O[C@H]4COS(=O)(=O)[O-])O[C@H]3COS(=O)(=O)[O-].[Na+].[Na+].[Na+].[Na+].[Na+].[Na+].[Na+].[Na+].[Na+].[Na+].[Na+].[Na+].[Na+].[Na+]	1000	14.8	0.98	0.98	–	–
–	–	–	–	O=S(=O)([O-])OCC1O[C@H]2O[C@@H]3C(COS(=O)(=O)[O-])O[C@H](O[C@@H]4C(COS(=O)(=O)[O-])O[C@H](O[C@@H]5C(COS(=O)(=O)[O-])O[C@H](O[C@@H]6C(COS(=O)(=O)[O-])O[C@@H](O[C@@H]7C(COS(=O)(=O)[O-])O[C@H](O[C@@H]8C(COS(=O)(=O)[O-])O[C@H](O[C@H]1C(OS(=O)(=O)[O-])C2O)C(OCc1ccccc1)C8OS(=O)(=O)[O-])C(O)C7OS(=O)(=O)[O-])C(OCc1ccccc1)C6OS(=O)(=O)[O-])C(OS(=O)(=O)[O-])C5OS(=O)(=O)[O-])C(OCc1ccccc1)C4OS(=O)(=O)[O-])C(OS(=O)(=O)[O-])C3OS(=O)(=O)[O-].[Na+].[Na+].[Na+].[Na+].[Na+].[Na+].[Na+].[Na+].[Na+].[Na+].[Na+].[Na+].[Na+].[Na+].[Na+].[Na+] (some centres undefined)	> 1000	4	1.95	3.9	–	–
6.5	–	2	–	O=S(=O)([O-])OCC1O[C@H]2O[C@@H]3C(CSCc4ccccc4)O[C@H](O[C@@H]4C(COS(=O)(=O)[O-])O[C@H](O[C@@H]5C(COS(=O)(=O)[O-])O[C@@H](O[C@@H]6C(CSCc7ccccc7)O[C@H](O[C@@H]7C(COS(=O)(=O)[O-])O[C@H](O[C@@H]8C(CSCc9ccccc9)O[C@H](O[C@H]1C(O)C2OS(=O)(=O)[O-])C(OS(=O)(=O)[O-])C8OS(=O)(=O)[O-])C(OS(=O)(=O)[O-])C7OS(=O)(=O)[O-])C(OS(=O)(=O)[O-])C6OS(=O)(=O)[O-])C(O)C5OS(=O)(=O)[O-])C(OS(=O)(=O)[O-])C4OS(=O)(=O)[O-])C(OS(=O)(=O)[O-])C3OS(=O)(=O)[O-].[K+].[K+].[K+].[K+].[K+].[K+].[K+].[K+].[K+].[K+].[K+].[K+].[K+].[K+].[K+].[K+] (some centres undefined)	> 1000	7.1	0.98	1.95	4.5	11

Reference: ChEMBL document CHEMBL1126710, “A new candidate for an anti-HIV-1 agent: modified cyclodextrin sulfate (mCDS71)” (J Med Chem, 1993)
